Patent US11912723B2, “KRAS modulators and uses thereof” (Quanta Therapeutics, Inc., priority 2022, dated 2024)

Tests used:
KRAS G12D/RAF1 = target: T1, KRAS G12D/RAF1 (Homo sapiens, UniProt P01116, G12D); experiment: Protein-protein interaction (PPI) HTRF assay KRAS G12D/RAF1; format: binding; details: KRAS G12D/RAF1, GppNHp-loaded KRAS; 30 minutes pre-incubation
T1 construct: KRAS (1-169) proteins were expressed in E. coli at 18° C; His6-MBP (N, cleaved yes); made in house; host or cells: E. coli
Description: Biotinylated KRAS wt and KRAS G12DNV proteins were expressed and purified in conditions similar to those previously reported (Tran, et al., 2021) (Zhang, et al., 2020). Briefly, KRAS (1-169) proteins were expressed in E. coli at 18° C. with an upstream TEV cleavage site (ENLFYQS) followed an Avi tag sequence ([…]). KIRAS expression constructs contained both a His6 and maltose-binding protein (MBP) tags at the N-terminus for Ni-NTA column purification prior to overnight TEV cleavage and MBP column purification. The avi-tagged NRAS expression construct contained both a His6 tag and SUMO cleavage sige at the N-terminus for Ni-NTA column purification followed by His-ULP1 digestion overnight. All avi-tagged RAS proteins were dialyzed into buffer containing ATP, biotin, and BirA followed by purification over a second Ni-NTA column and then run over a size exclusion HiLoad™ 26/600 Superdex™ column in 20 mM HEPES, pH 7.5, 300 mM NaCl, 5 mM MgCl2, and 1 mM TCEP. Fractions containing the protein of interest were pooled, concentrated, and confirmed by intact mass spectrometry. To prepare ‘GTP’ loaded KRAS and NRAS, biotinylated KRAS or NRAS was nucleotide exchanged from GDP-bound protein to GppNHp-bound (Jena Biosciences, NU-401-50) protein in the presence of alkaline phosphatase and excess GppNHp as previously described and the resulting nucleotide content was confirmed by HPLC reverse phase analytical chromatography (Donohue, et al., 2019) (Tran, et al., 2021).
His-tagged RAF1 (52-131) was similarly expressed in E. coli at 18° C. overnight with an upstream TEV cleavage site. His-tagged RAF1 expression construct contained both a His6 and MBP tags at the N-terminus for Ni-NTA column purification followed by MBP-tagged TEV digestion overnight. RAF1 protein samples were further purified over a MBP column followed by a Ni-NTA column and a second MBP column. The fractions containing the protein of interest were pooled, concentrated, and further purified over a HiLoad™ 16/600 Superdex™ 75 pg size exclusion column into 20 mM HEPES, pH8.0, 200 mM NaCl, 5 mM TCEP.
When RAS proteins are in the active GTP-bound conformation, they bind the effector protein RAF1 at the N-terminus Ras-binding domain (RBD, residues 52-131) (Tran, et al., 2021). Homogenous time resolved fluorescence (HTRF) was used to monitor the interaction between wt or mutant KRAS and RAF1 or wt NRAS and RAFT. Compounds were assayed in the presence of KRAS G12D/V and RAF1 versus wt KRAS to assess activity against mutant and w.t. KRAS. Similarly, compounds were then assayed in the presence of w.t. NRAS and RAF1 to assess RAS isoform selectivity. In all assay formats, His-tagged RAF1 protein was incubated with the HTRF donor, anti-6His Tb Cryptate gold (Cisbio 61DB10RDF), and biotinylated RAS proteins were incubated with the HTRF acceptor, streptavidin-d2 (CisBio 610SADLA). The intensity of the fluorescence signal emitted is proportional to binding between the two proteins. The donor solution was prepared by mixing 16 nM His-tagged RAF1 in protein dilution buffer with 1:100 anti-6His Tb cryptate in PPI-Terbium detection buffer. 16 nM biotinylated RAS protein was diluted into protein dilution buffer (50 mM Tris-HCl pH 7.5, 150 mM NaCl, 0.1 mM MgCl2, 1 mM TCEP, 0.005% Tween20) and mixed with 1:2000 Streptavidin-d2 diluted in PPI-Terbium detection buffer (CisBio 61DB10RDF). 50× compound in DMSO was mixed with 16 nM KRAS-acceptor solution and incubated for 30 minutes at room temperature. After compound pre-incubation with KRAS, the RAF1 donor solution was added to the KRAS-acceptor solution and incubated for 1 hour at room temperature. The fluorescence signal emitted was monitored at 665 nm and 615 nm using an Envision multimode plate reader. The HTRF ratio (665/615) was calculated and normalized to 0% inhibition in the absence of compound and 100% inhibition in the presence of untagged RAF1 protein. […]

[1] = target: T2, GST-tagged KRAS G12D (2-169) (Homo sapiens, UniProt P01116, G12D); experiment: Nucleotide exchange assay (NEA), HTRF of SOS-mediated GTP-DY-647P1 binding; format: biochemical; details: 5 nM GST-KRAS G12D, 20 nM SOScat, 150 nM GTP; compound 1 h at RT
T2 construct: GST-tagged KRAS^G12D (2-169, Reaction Biology, MSC-11-539); purchased Reaction Biology MSC-11-539 (KRAS G12D); MSC-11-502 (SOS1cat)
Description: This activity is tightly regulated by GTPase activating proteins (GAPs) and guanine nucleotide exchange factors (GEFs). GEFs, such as SOS1/2, activate Ras proteins by exchanging GDP for GTP, thus returning Ras to its active conformation (Simanshu, Nissley, & McCormick, 2017). […] Homogenous time resolved fluorescence (HTRF) was used to detect SOS-mediated binding of a fluorescent GTP analog, GTP-DY-647P1 (Jena Biosciences NU-820-647P1) to GST-tagged KRAS^G12D (2-169, Reaction Biology, MSC-11-539).
GST-tagged KRAS^G12D (2-169) and anti-GST MAb Tb Cryptate Gold (CisBio 61GSTTLB) were diluted into assay buffer (20 mM HEPES, pH 7.3, 150 mM NaCl, 5 mM MgCl2, 0.05% BSA 0.0025% NP40, 1 mM DTT) to prepare a 2.5× donor solution. 5× compound was added to the protein mixture and incubated for 1 h at RT. 2.5× acceptor solution containing SOS1cat (564-1049, Reaction Biology MSC-11-502) and GTP-DY-647P1 were then added to the donor KRAS mixture such that the final concentration of the reaction contained 5 nM GST-tagged KRAS^G12D (2-169), 20 nM SOScat, and 150 nM GTP. The reaction was monitored using at RT with the Envision multimode plate reader (Ex/Em 337/665, […]) up to 90 minutes at 5 minute intervals. Data was blanked to reactions without SOS1 and % inhibition was calculated such that DMSO only=0% and blank=100%. Curve fitting was done using a 4 parameter fit. NEA KRAS G12D ID50 (uM) values of selected compounds are depicted in Table 2 with compounds having a value<0.01 uM as ++++; >0.01 uM to 0.1 uM as +++; >0.1 uM to 1 uM as ++; >1 uM to 20 uM as +; and >20 uM as NA.

T2 sequence (P01116 2-169 isoform P01116-2 G12D): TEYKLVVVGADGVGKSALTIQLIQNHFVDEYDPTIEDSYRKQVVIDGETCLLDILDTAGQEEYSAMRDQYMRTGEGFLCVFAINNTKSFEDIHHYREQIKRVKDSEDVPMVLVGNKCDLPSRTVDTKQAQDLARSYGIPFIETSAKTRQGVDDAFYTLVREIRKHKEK
T1 sequence (P01116 1-169 isoform P01116-2 G12D): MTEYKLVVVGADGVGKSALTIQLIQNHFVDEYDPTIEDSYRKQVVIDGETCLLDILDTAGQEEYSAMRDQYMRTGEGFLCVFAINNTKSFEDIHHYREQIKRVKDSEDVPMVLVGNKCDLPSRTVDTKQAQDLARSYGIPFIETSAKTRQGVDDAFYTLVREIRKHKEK

Structure (SMILES) | IC50 (KRAS G12D/RAF1) [µM] | IC50 [1] [µM]
O=C1NC(=O)C2(CCCN(c3nc(OC[C@@]45CCCN4C[C@H](F)C5)nc4c3COC3(CCc5ccc(O)cc53)C4)C2)N1 (mixture of isomers) [Compound 30, 9-[6′-hydroxy-2-[[rac-(2R,8S)-2-fluoro-1,2,3,5,6,7-hexahydropyrrolizin-8-yl]methoxy]spiro[5,8-dihydropyrano[4,3-d]pyrimidine-7,1′-indane]-4-yl]-1,3,9-triazaspiro[4.5]decane-2,4-dione] | > 100 | 1 to 20
C[C@@]1(O)CCCN(c2nc(OC[C@@]34CCCN3C[C@H](F)C4)nc3c2COC2(CCc4c(Cl)cccc42)C3)C1 (single isomer, unassigned) [Compound 23A, (3R)-1-[(7*)-4′-chloro-2-[[(2R,8S)-2-fluoro-1,2,3,5,6,7-hexahydropyrrolizin-8-yl]methoxy]spiro[5,8-dihydropyrano[4,3-d]pyrimidine-7,1′-indane]-4-yl]-3-methyl-piperidin-3-ol] | > 100 | 0.1 to 1
O=C1NC(=O)[C@]2(CCCN(c3nc(OC[C@@]45CCCN4C[C@H](F)C5)nc4c3COC3(CCCc5c(Cl)cc(O)cc53)C4)C2)N1 (single isomer, unassigned) [Compound 51B, (5R)-9-[(7*)-5′-chloro-2-[[(2R,8S)-2-fluoro-1,2,3,5,6,7-hexahydropyrrolizin-8-yl]methoxy]-7′-hydroxy-spiro[5,8-dihydropyrano[4,3-d]pyrimidine-7,1′-tetralin]-4-yl]-1,3,9-triazaspiro[4.5]decane-2,4-dione] | 10 to 100 | 0.01 to 0.1
CN(C)C(=O)c1nn2c(c1Cl)CN(c1nc(OC[C@@]34CCCN3C[C@H](F)C4)nc3c1CN(C)[C@]1(CCCc4ccccc41)C3)CCC2 (single isomer, unassigned) [Compound 64B] | > 100 | 0.1 to 1
F[C@H]1CN2CCC[C@@]2(COc2nc3c(c(N4C[C@H]5CC[C@@H](C4)N5)n2)COC2(C3)c3ccccc3-c3n[nH]cc32)C1 (stereo partly drawn) [Compound 3, 4′-[(1R,5S)-3,8-diazabicyclo[3.2.1]octan-3-yl]-2′-[[(2R,8S)-2-fluoro-1,2,3,5,6,7-hexahydropyrrolizin-8-yl]methoxy]spiro[2H-indeno[1,2-c]pyrazole-4,7′-5,8-dihydropyrano[4,3-d]pyrimidine]] | > 100 | 1 to 20
Nc1ccc2c(c1)C1(CCC2)Cc2nc(OC[C@@]34CCCN3C[C@H](F)C4)nc(N3CCCC(O)CC3)c2CO1 (stereo partly drawn) [Compound 13, 1-[7′-amino-2-[[(2R,8S)-2-fluoro-1,2,3,5,6,7-hexahydropyrrolizin-8-yl]methoxy]spiro[5,8-dihydropyrano[4,3-d]pyrimidine-7,1′-tetralin]-4-yl]azepan-4-ol] | 10 to 100 | 1 to 20
N#CCC1CCCN(c2nc(OC[C@@]34CCCN3C[C@H](F)C4)nc3c2COC2(CCc4c(Cl)cccc42)C3)CC1 (stereo partly drawn) [Compound 19, 2-(1-(4-chloro-2′-(((2R,7aS)-2-fluorotetrahydro-1H-pyrrolizin-7a(5H)-yl)methoxy)-2,3,5′,8′-tetrahydrospiro[indene-1,7′-pyrano[4,3-d]pyrimidin]-4′-yl)azepan-4-yl)acetonitrile] | > 100 | 1 to 20
N#Cc1ccc2c(c1)C1(CCC2)Cc2nc(OC[C@@]34CCCN3C[C@H](F)C4)nc(N3CCCCCC3)c2CO1 (stereo partly drawn) [Compound 20, 4-(azepan-1-yl)-2-[[(2R,8S)-2-fluoro-1,2,3,5,6,7-hexahydropyrrolizin-8-yl]methoxy]spiro[5,8-dihydropyrano[4,3-d]pyrimidine-7,4′-tetralin]-6′-carbonitrile] | > 100 | 1 to 20
F[C@H]1CN2CCC[C@@]2(COc2nc3c(c(N4CCCCCC4)n2)COC2(COCc4ccccc42)C3)C1 (stereo partly drawn) [Compound 25, 4-(azepan-1-yl)-2-[[(2R,8S)-2-fluoro-1,2,3,5,6,7-hexahydropyrrolizin-8-yl]methoxy]spiro[5,8-dihydropyrano[4,3-d]pyrimidine-7,4′-isochromane]] | > 100 | 1 to 20
CN(C)C(=O)c1cc2n(n1)CCCN(c1nc(OC[C@@]34CCCN3C[C@H](F)C4)nc3c1CO[C@]1(CCc4c(Cl)cccc41)C3)C2 [Compound 27A, 5-[(7S)-4′-chloro-2-[[(2R,8S)-2-fluoro-1,2,3,5,6,7-hexahydropyrrolizin-8-yl]methoxy]spiro[5,8-dihydropyrano[4,3-d]pyrimidine-7,1′-indane]-4-yl]-N,N-dimethyl-4,6,7,8-tetrahydropyrazolo[1,5-a][1,4]diazepine-2-carboxamide] | > 100 | 0.1 to 1
CONC(=O)c1cc2n(n1)CCCN(c1nc(OC[C@@]34CCCN3C[C@H](F)C4)nc3c1CO[C@@]1(CCc4c(Cl)cccc41)C3)C2 [Compound 31, N-methoxy-5-[(7S)-4′-chloro-2-[[(2R,8S)-2-fluoro-1,2,3,5,6,7-hexahydropyrrolizin-8-yl]methoxy]spiro[5,8-dihydropyrano[4,3-d]pyrimidine-7,1′-indane]-4-yl]-4,6,7,8-tetrahydropyrazolo[1,5-a][1,4]diazepine-2-carboxamide] | > 100 | 0.01 to 0.1
CN(C)C(=O)c1cc2n(n1)CCCN(c1nc(OC[C@@]34CCCN3C[C@H](F)C4)nc3c1COC1(CCc4ccc(O)cc41)C3)C2 (stereo partly drawn) [Compound 32] | > 100 | 0.01 to 0.1
